Columns and labels:
Test in all cases: relative viability (nuclei count vs DMSO), 5 days (fraction); higher = more cells survive
NCI-H1734 = test system: NCI-H1734
Outline: (§1)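 After 5 days of treatment, lung cancer cells in 1536-well plates were fixed and stained in a single step (final 0.05% Triton X-100, 1% formaldehyde, 1 ug/ml Hoechst) and their nuclei counted on 4× images. Treatment had been applied by pin tool the day after seeding as one drug alone or as a fixed anchor-drug dose with five library-drug doses (not always all listed) in √10 steps. Relative viability is the nuclei count of treated wells divided by that of vehicle wells, and values are medians of duplicate plates.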

NCI-H2342 = test system: NCI-H2342
Outline: as §1

NCI-H1793 = test system: NCI-H1793
Outline: as §1

HOP-62 = test system: HOP-62
Outline: as §1

NCI-H2347 = test system: NCI-H2347
Outline: as §1

NCI-H647 = test system: NCI-H647
Outline: as §1

EKVX = test system: EKVX
Outline: as §1

SK-MES-1 = test system: SK-MES-1
Outline: as §1

NCI-H1355 = test system: NCI-H1355
Outline: as §1

NCI-H838 = test system: NCI-H838
Outline: as §1

COR-L 105 = test system: COR-L 105
Outline: as §1

NCI-H1993 = test system: NCI-H1993
Outline: as §1

COR-L23 = test system: COR-L23
Outline: as §1

UMC-11 = test system: UMC-11
Outline: as §1

PC-14 = test system: PC-14
Outline: as §1

NCI-H1395 = test system: NCI-H1395
Outline: as §1

NCI-H2228 = test system: NCI-H2228
Outline: as §1

NCI-H1755 = test system: NCI-H1755
Outline: as §1

NCI-H2170 = test system: NCI-H2170
Outline: as §1

HCC-15 = test system: HCC-15
Outline: as §1

NCI-H2009 = test system: NCI-H2009
Outline: as §1

HARA = test system: HARA
Outline: as §1

NCI-H358 = test system: NCI-H358
Outline: as §1

NC(=O)Nc1cc(-c2cccc(F)c2)sc1C(=O)N[C@H]1CCCNC1 [AZD7762] + COc1cc2c(Oc3ccc(NC(=O)C4(C(=O)Nc5ccc(F)cc5)CC4)cc3F)ccnc2cc1OCCCN1CCOCC1 [Foretinib] (partner 0.25 µM)
relative viability (NCI-H1734; first compound 0.01 µM): 0.979
relative viability (NCI-H1734; first compound 0.03162 µM): 0.97
relative viability (NCI-H1734; first compound 0.1 µM): 0.929
relative viability (NCI-H1734; first compound 0.3162 µM): 0.807
relative viability (NCI-H1734; first compound 1 µM): 0.436
relative viability (NCI-H2342; first compound 0.01 µM): 0.992
relative viability (NCI-H2342; first compound 0.03162 µM): 1.14
relative viability (NCI-H2342; first compound 0.1 µM): 1.09
relative viability (NCI-H2342; first compound 0.3162 µM): 1.1
relative viability (NCI-H2342; first compound 1 µM): 1.25
relative viability (NCI-H1793; first compound 0.01 µM): 0.732
relative viability (NCI-H1793; first compound 0.03162 µM): 0.682
relative viability (NCI-H1793; first compound 0.1 µM): 0.595
relative viability (NCI-H1793; first compound 0.3162 µM): 0.8
relative viability (NCI-H1793; first compound 1 µM): 0.608
relative viability (HOP-62; first compound 0.01 µM): 1.17
relative viability (HOP-62; first compound 0.03162 µM): 1.14
relative viability (HOP-62; first compound 0.1 µM): 1.23
relative viability (HOP-62; first compound 0.3162 µM): 1.1
relative viability (HOP-62; first compound 1 µM): 1.14
relative viability (NCI-H2347; first compound 0.01 µM): 1.55
relative viability (NCI-H2347; first compound 0.03162 µM): 0.791
relative viability (NCI-H2347; first compound 0.1 µM): 0.767
relative viability (NCI-H2347; first compound 0.3162 µM): 0.616
relative viability (NCI-H2347; first compound 1 µM): 0.51
relative viability (NCI-H647; first compound 0.01 µM): 1.23
relative viability (NCI-H647; first compound 0.03162 µM): 1.32
relative viability (NCI-H647; first compound 0.1 µM): 1.23
relative viability (NCI-H647; first compound 0.3162 µM): 1.19
relative viability (NCI-H647; first compound 1 µM): 0.326
relative viability (EKVX; first compound 0.01 µM): 0.64
relative viability (EKVX; first compound 0.03162 µM): 0.741
relative viability (EKVX; first compound 0.1 µM): 0.956
relative viability (EKVX; first compound 0.3162 µM): 0.387
relative viability (EKVX; first compound 1 µM): 0.522
relative viability (SK-MES-1; first compound 0.01 µM): 0.83
relative viability (SK-MES-1; first compound 0.03162 µM): 0.973
relative viability (SK-MES-1; first compound 0.1 µM): 1.02
relative viability (SK-MES-1; first compound 0.3162 µM): 0.903
relative viability (SK-MES-1; first compound 1 µM): 0.528
relative viability (NCI-H1355; first compound 0.01 µM): 0.964
relative viability (NCI-H1355; first compound 0.03162 µM): 0.975
relative viability (NCI-H1355; first compound 0.1 µM): 0.967
relative viability (NCI-H1355; first compound 0.3162 µM): 1.02
relative viability (NCI-H1355; first compound 1 µM): 0.995
relative viability (NCI-H838; first compound 0.01 µM): 1.1
relative viability (NCI-H838; first compound 0.03162 µM): 1.07
relative viability (NCI-H838; first compound 0.1 µM): 1.04
relative viability (NCI-H838; first compound 0.3162 µM): 0.992
relative viability (NCI-H838; first compound 1 µM): 0.553
relative viability (COR-L 105; first compound 0.01 µM): 1.25
relative viability (COR-L 105; first compound 0.03162 µM): 1.01
relative viability (COR-L 105; first compound 0.1 µM): 1.01
relative viability (COR-L 105; first compound 0.3162 µM): 1.09
relative viability (COR-L 105; first compound 1 µM): 0.643
relative viability (NCI-H1993; first compound 0.01 µM): 0.772
relative viability (NCI-H1993; first compound 0.03162 µM): 0.878
relative viability (NCI-H1993; first compound 0.1 µM): 0.801
relative viability (NCI-H1993; first compound 0.3162 µM): 0.821
relative viability (NCI-H1993; first compound 1 µM): 0.708
relative viability (COR-L23; first compound 0.01 µM): 1.18
relative viability (COR-L23; first compound 0.03162 µM): 0.955
relative viability (COR-L23; first compound 0.1 µM): 1.08
relative viability (COR-L23; first compound 0.3162 µM): 0.842
relative viability (COR-L23; first compound 1 µM): 0.292
relative viability (UMC-11; first compound 0.01 µM): 1.04
relative viability (UMC-11; first compound 0.03162 µM): 1.1
relative viability (UMC-11; first compound 0.1 µM): 1.11
relative viability (UMC-11; first compound 0.3162 µM): 0.765
relative viability (UMC-11; first compound 1 µM): 0.384
relative viability (PC-14; first compound 0.01 µM): 1.04
relative viability (PC-14; first compound 0.03162 µM): 0.927
relative viability (PC-14; first compound 0.1 µM): 0.973
relative viability (PC-14; first compound 0.3162 µM): 0.885
relative viability (PC-14; first compound 1 µM): 0.361
relative viability (NCI-H1395; first compound 0.01 µM): 0.974
relative viability (NCI-H1395; first compound 0.03162 µM): 1.08
relative viability (NCI-H1395; first compound 0.1 µM): 1.1
relative viability (NCI-H1395; first compound 0.3162 µM): 0.91
relative viability (NCI-H1395; first compound 1 µM): 0.452
relative viability (NCI-H2228; first compound 0.01 µM): 0.851
relative viability (NCI-H2228; first compound 0.03162 µM): 0.788
relative viability (NCI-H2228; first compound 0.1 µM): 0.825
relative viability (NCI-H2228; first compound 0.3162 µM): 0.828
relative viability (NCI-H2228; first compound 1 µM): 0.265
relative viability (NCI-H1755; first compound 0.01 µM): 0.908
relative viability (NCI-H1755; first compound 0.03162 µM): 0.96
relative viability (NCI-H1755; first compound 0.1 µM): 0.921
relative viability (NCI-H1755; first compound 0.3162 µM): 0.918
relative viability (NCI-H1755; first compound 1 µM): 0.473
relative viability (NCI-H2170; first compound 0.01 µM): 0.925
relative viability (NCI-H2170; first compound 0.03162 µM): 1.06
relative viability (NCI-H2170; first compound 0.1 µM): 0.984
relative viability (NCI-H2170; first compound 0.3162 µM): 1.04
relative viability (NCI-H2170; first compound 1 µM): 1.13
relative viability (HCC-15; first compound 0.01 µM): 1.06
relative viability (HCC-15; first compound 0.03162 µM): 0.995
relative viability (HCC-15; first compound 0.1 µM): 0.993
relative viability (HCC-15; first compound 0.3162 µM): 1.06
relative viability (HCC-15; first compound 1 µM): 0.983
relative viability (NCI-H2009; first compound 0.01 µM): 1.25
relative viability (NCI-H2009; first compound 0.03162 µM): 1.27
relative viability (NCI-H2009; first compound 0.1 µM): 1.27
relative viability (NCI-H2009; first compound 0.3162 µM): 1.13
relative viability (NCI-H2009; first compound 1 µM): 0.962
relative viability (HARA; first compound 0.01 µM): 0.888
relative viability (HARA; first compound 0.03162 µM): 0.932
relative viability (HARA; first compound 0.1 µM): 0.91
relative viability (HARA; first compound 0.3162 µM): 0.866
relative viability (HARA; first compound 1 µM): 0.197
relative viability (NCI-H358; first compound 0.01 µM): 0.532
relative viability (NCI-H358; first compound 0.03162 µM): 0.76
relative viability (NCI-H358; first compound 0.1 µM): 0.628
relative viability (NCI-H358; first compound 0.3162 µM): 0.647
relative viability (NCI-H358; first compound 1 µM): 0.378
